Holding throughout (experiment): Postemergence herbicidal activity, greenhouse trial (visual injury 0-100%)
Common to all, as to format: in vivo

The subject of test [1] is brown mustard (Brassica juncea, BRSJU). As to conditions: bensulfuron 17.5 g ai/ha.
The test system of test [2] is winter rape (Brassica napus, BRSNW).
In test [3] the test system is sunflower (Helianthus annuus, HELAN). To be noted: HELAN; bensulfuron 17.5 g ai/ha.
Test [4] deals with wild pansy (Viola tricolor, VIOTR). To be noted: Viola tricolor, post-emergence, read-out: % visual injury Obs. Summed up:
(§1)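 Greenhouse plants at the 2nd–3rd true-leaf stage (14 h photoperiod, ~23/22 °C) were track-sprayed at 187 L/ha with acetone/DMSO stocks diluted in 1.5% v/v crop oil concentrate. Rates were g ae/ha for component (a) and g ai/ha for (b). Injury versus solvent-blank controls was rated visually at 20–22 d, with Colby's equation giving expected mixture effects.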

For test [5], the system named is rutabaga (Brassica napus var. napobrassica, BRSNA). As to conditions: 17.5 g ai/ha. On the procedure: Seeds of the desired test plant species were planted in Sun Gro MetroMix® 306 planting mixture, which typically has a pH of 6.0 to 6.8 and an organic matter content of about 30 percent, in plastic pots with a surface area of 103.2 square centimeters (cm^2). […] The plants were grown for 7-36 days (d) in a greenhouse with an approximate 14-hour (h) photoperiod which was maintained at about 23° C. during the day and 22° C. during the night. Nutrients and water were added on a regular basis and supplemental lighting was provided with overhead metal halide 1000-Watt lamps as necessary. The plants were employed for testing when they reached the second or third true leaf stage.
Weighed amounts of technical material were dissolved in a volume of 97:3 volume per volume (v/v) acetone/dimethyl sulfoxide (DMSO) to stock solutions. […] The concentrated stock solutions were diluted with an aqueous mixture of 1.5% v/v of Agri-dex crop oil concentrate to provide the appropriate application rates. Compound requirements are based upon a 12 milliliter (mL) application volume at a rate of 187 liters per hectare (L/ha). Spray solutions of the experimental compound mixtures were prepared by adding the stock solutions to the appropriate amount of dilution solution to form a 12 mL spray solution in two-way combinations. Formulated compounds were applied to the plant material with an overhead Mandel track sprayer equipped with 8002E nozzles calibrated to deliver 187 L/ha over an application area of 0.503 square meters (m^2) at a spray height of 18 inches (43 centimeters (cm)) above average plant canopy. Control plants were sprayed in the same manner with the solvent blank. Application rates for component (a) are in g ae/ha, and application rates for component (b) are in g ai/ha.
The treated plants and control plants were placed in a greenhouse as described above and watered by sub-irrigation to prevent wash-off of the test compounds. After 20-22 d, the condition of the test plants as compared with that of the control plants was determined visually and scored on a scale of 0 to 100 percent where 0 corresponds to no injury and 100 corresponds to complete kill. The condition of the test plants was compared with that of the control plants as determined visually and scored on a scale of 0 to 100 percent, where 0 corresponds to no injury and 100 corresponds to complete kill. Colby's equation was used to determine the herbicidal effects expected from the mixtures.
Compound 1 was formulated as an EC and was combined with imazamox, imazamethabenz, imazapic, imazapyr or imazethapyr. The mixtures were applied to winter wheat (TRZAW) and/or maize (ZEAMX), and the phytotoxicity of the herbicidal compositions was measured. In addition, the efficacy of the herbicidal compositions on blackgrass (Alopecurus myosuroides, ALOMY), wild oat (Avena fatua, AVEFA), winter rape (Brassica napus, BRSNW), spring rape (Brassica napus, BRSNN), turnip (Brassica rapa, BRSRR), thistle (Cirsium arvense, CIRAR), large crabgrass (Digitaria sanguinalis, DIGSA), pigweed (Amaranthus retrollexus, AMARE), common lambsquarters (Chenopodium album L., CHEAL), poinsettia (Euphorbia heterophylla, EPHHL), ivyleaf morning-glory (Ipomoea hederacea, IPOHE), kochia (Kochia scoparia, KCHSC), wild buckwheat (Polygonum convolvulus, POLCO), grain sorghum (Sorghum vulgare, SORVU), chickweed (Stellaria media, STEME), wild pansy (Viola tricolor, VIOTR), sunflower (Helianthus annuus, HELAN), giant foxtail (Setaria faberi, SETFA), soybean (Glycine max, GLXMA), rutabaga (Brassica napus var. napobrassica, BRSNA) and barnyardgrass (Echinochloa crus-galli, ECHCG) was evaluated.

In test [6] the test system is blackgrass (Alopecurus myosuroides, ALOMY). As to conditions: 17.5 g ai/ha. The gist of the method:
as §1

Test [7] concerns wild oat (Avena fatua, AVEFA). As to conditions: 17.5 g ai/ha. The gist of the method:
as §1

For test [8], the system named is barnyardgrass (Echinochloa crus-galli, ECHCG). As to conditions: Echinochloa crus-galli, post-emergence, 17.5 g ai/ha; read-out: % visual injury Obs. Summed up:
as §1

The subject of test [9] is thistle (Cirsium arvense, CIRAR). As to conditions: Cirsium arvense, post-emergence; 17.5 g ai/ha; read-out: % visual injury Obs. Summed up: as §1
Test [10] deals with large crabgrass (Digitaria sanguinalis, DIGSA). To be noted: 17.5 g ai/ha.

Molecules are shown by their SMILES. Like-named read-outs stand apart in the source and are kept apart here.

The values that follow come from patent US20190364896A1, “SYNERGISTIC WEED CONTROL FROM APPLICATIONS OF PYRIDINE CARBOXYLIC ACID HERBICIDES AND ALS INHIBITORS” (Dow AgroSciences LLC, priority 2014, published 2019).

On to `COC(=O)c1ccccc1CS(=O)(=O)NC(=O)Nc1nc(OC)cc(OC)n1`, for which the “% visual injury Obs” value stood at 93% in [1]; 70% in test [2] (BRSNW, bensulfuron 17.5 g ai/ha); 10% in test [3]. In addition, the pest or weed control at 17.5 g/ha in test [4] (VIOTR, bensulfuron 17.5 g ai/ha) is 0%.
In the case of `CCc1cnc(C2=NC(C)(C(C)C)C(=O)N2)c(C(=O)O)c1` (stereo not drawn) [Imazethapyr, imazethapyr], the “% visual injury Obs” value in [5] came out at 20%; in test [6], 10%; in test [7], 10%; in [2] (17.5 g ai/ha) it was 75%; in test [10] it was 30%. Moreover, the values for the pest or weed control at 17.5 g/ha in test [8], in [9] and in test [4] (17.5 g ai/ha) were 70%, 30% and 5%, respectively.
